Earlier results as cited in patent US9307763B2, “Ligands for odor receptors and olfactory neurons” (The Regents of the University of California, priority 2010, dated 2016).

System: CO2 responsive neurons
Conditions: […]; averaged across the top 2 responders of the 4 species; cited from earlier work

**Q.** With C=CC(O)CCCC (centres unmarked) [1-hepten-3-ol] as the compound, how does the “Final Activity” value read?
**A.** 0

**Q.** For COc1ccccc1 [Anisole], which “Final Activity” value is on record?
**A.** 6

**Q.** With CCCC=O [butanal] as the compound, how does the “Final Activity” value read?
**A.** −85

**Q.** Which “Final Activity” value does the source give for CCCCC(=O)O [pentanoic acid] here?
**A.** −26

**Q.** With CCc1ncc(C)nc1C [2-ethyl-3,5-dimethylpyrazine] as the compound, how does the “Final Activity” value read?
**A.** 8

**Q.** For CCCCCCCC [octane], which “Final Activity” value is on record?
**A.** −34

**Q.** With CCCCCCCCOC(C)=O [octyl acetate] as the compound, how does the “Final Activity” value read?
**A.** −15

**Q.** For CC(=O)C(C)=O [2,3-butanedione], which “Final Activity” value is on record?
**A.** −99

**Q.** Which “Final Activity” value does the source give for C/C=C\CCC [cis-2-hexene] here?
**A.** 5

**Q.** With CC1CCC(C(C)C)C(O)C1 (centres unmarked) [Menthol] as the compound, how does the “Final Activity” value read?
**A.** −2

**Q.** Which “Final Activity” value does the source give for CC(=O)c1ccccc1 [acetophenone] here?
**A.** 15

**Q.** With CCCCCCCO [heptanol] as the compound, how does the “Final Activity” value read?
**A.** −38

**Q.** For CCCCC [pentane], which “Final Activity” value is on record?
**A.** −31

**Q.** Which “Final Activity” value does the source give for CCCCCCCl [1-chlorohexane] here?
**A.** 8

**Q.** With CCCCCCC(=O)O [heptanoic acid] as the compound, how does the “Final Activity” value read?
**A.** −14

**Q.** With CCCCC=O [pentanal] as the compound, how does the “Final Activity” value read?
**A.** −51

**Q.** For CCCCCOC(C)=O [pentyl acetate], which “Final Activity” value is on record?
**A.** −15

**Q.** For Cc1ccc(O)cc1 [4-methylphenol], which “Final Activity” value is on record?
**A.** 3

**Q.** With CC1CCC(=O)O1 (centres unmarked) [gamma-valerolactone] as the compound, how does the “Final Activity” value read?
**A.** −5

**Q.** For CC/C=C\CCO [cis-3-hexen-1-ol], which “Final Activity” value is on record?
**A.** 10

**Q.** With C=CCc1ccc(OC)c(OC)c1 [Eugenol Methyl Ether] as the compound, how does the “Final Activity” value read?
**A.** −9

**Q.** Which “Final Activity” value does the source give for CCCCCCC(=O)CC [3-nonanone] here?
**A.** 2

**Q.** Which “Final Activity” value does the source give for CCCCCCCCO [octanol] here?
**A.** −35

**Q.** With c1cscn1 [thiazole] as the compound, how does the “Final Activity” value read?
**A.** 100

**Q.** With CCCCCC[SiH3] [hexylsilane] as the compound, how does the “Final Activity” value read?
**A.** 3

**Q.** With CCCCCC=O [hexanal] as the compound, how does the “Final Activity” value read?
**A.** −32

**Q.** With CC(C)O [Isopropyl Alcohol] as the compound, how does the “Final Activity” value read?
**A.** 3

**Q.** Which “Final Activity” value does the source give for CC(=O)CF [fluoroacetone] here?
**A.** 10

**Q.** Which “Final Activity” value does the source give for CCCCCCC=O [heptanal] here?
**A.** −21

**Q.** Which “Final Activity” value does the source give for CCCCCCOC(C)=O [hexyl acetate] here?
**A.** −12

**Q.** Which “Final Activity” value does the source give for CCCCCCCC(=O)CC [3-decanone] here?
**A.** 1

**Q.** With OCCCCCO [1,5-pentanediol] as the compound, how does the “Final Activity” value read?
**A.** 0

**Q.** Which “Final Activity” value does the source give for C=CCc1ccc(O)c(OC)c1 [Eugenol] here?
**A.** 1

**Q.** With c1cnccn1 [pyrazine] as the compound, how does the “Final Activity” value read?
**A.** −8

**Q.** With Cc1nc(C)c(C)s1 [2,4,5-trimethylthiazole] as the compound, how does the “Final Activity” value read?
**A.** 5

**Q.** For CCCCCCBr [1-bromohexane], which “Final Activity” value is on record?
**A.** 3

**Q.** Which “Final Activity” value does the source give for CC12CCC(C1)C(C)(C)C2=O (centres unmarked) [Fenchone] here?
**A.** −2

**Q.** Which “Final Activity” value does the source give for CC(=O)C(=O)O [pyruvic acid] here?
**A.** 2

**Q.** With CCCCC(O)CC (centres unmarked) [3-heptanol] as the compound, how does the “Final Activity” value read?
**A.** −16

**Q.** For Cc1ccc(C(C)C)c(O)c1 [Thymol], which “Final Activity” value is on record?
**A.** 15

**Q.** With O=Cc1ccccc1 [Benzaldehyde] as the compound, how does the “Final Activity” value read?
**A.** 6

**Q.** For CCCCCC(C)O (centres unmarked) [2-heptanol], which “Final Activity” value is on record?
**A.** −39

**Q.** With CCC(=O)Cl [propionyl chloride] as the compound, how does the “Final Activity” value read?
**A.** −73

**Q.** With Cc1ccc(C)s1 [2,5-dimethylthiophene] as the compound, how does the “Final Activity” value read?
**A.** −9

**Q.** Which “Final Activity” value does the source give for CCC/C=C/C=O [(E)2-hexenal] here?
**A.** 0

**Q.** Which “Final Activity” value does the source give for CO [Methanol] here?
**A.** −14

**Q.** Which “Final Activity” value does the source give for CCCCCCO [hexanol] here?
**A.** −70

**Q.** With CCCCCC(O)CC (centres unmarked) [3-octanol] as the compound, how does the “Final Activity” value read?
**A.** −14

**Q.** With CCCCCC(=O)O [hexanoic acid] as the compound, how does the “Final Activity” value read?
**A.** −16

**Q.** Which “Final Activity” value does the source give for C=C(C)[C@H]1CC=C(C)CC1 [Limonene] here?
**A.** −2

**Q.** Which “Final Activity” value does the source give for CSCCC=O [Methional] here?
**A.** 0

**Q.** Which “Final Activity” value does the source give for CCCNCCO [2-(propylamino)-ethanol] here?
**A.** −39

**Q.** For CC(=O)c1cccs1 [2-acetylthiophene], which “Final Activity” value is on record?
**A.** 31

**Q.** Which “Final Activity” value does the source give for c1ccc2[nH]ccc2c1 [Indole] here?
**A.** 21

**Q.** Which “Final Activity” value does the source give for CC(=O)CCO [4-hydroxy-2-butanone] here?
**A.** −11

**Q.** Which “Final Activity” value does the source give for CCCC(=O)Cl [butyryl chloride] here?
**A.** −39

**Q.** For c1ccc2ccccc2c1 [naphthalene], which “Final Activity” value is on record?
**A.** −14

**Q.** With Cc1cnc(C)cn1 [2,5-dimethylpyrazine] as the compound, how does the “Final Activity” value read?
**A.** 26

**Q.** Which “Final Activity” value does the source give for CCC(C)=O [butanone] here?
**A.** −25

**Q.** Which “Final Activity” value does the source give for CC(C)=CCCC(C)O (centres unmarked) [6-methyl-5-hepten-2-ol] here?
**A.** 0

**Q.** For C=C(C)C1CC=C(C)C(=O)C1 (centres unmarked) [Carvone], which “Final Activity” value is on record?
**A.** 4

**Q.** For CSCCCC=O [4-(methylthio)-1-butanal], which “Final Activity” value is on record?
**A.** −15

**Q.** For CC=C(C)CC [3-methyl-2-pentene], which “Final Activity” value is on record?
**A.** 5

**Q.** With CCCC(=O)CCC [4-heptanone] as the compound, how does the “Final Activity” value read?
**A.** 2

**Q.** For CC(=O)OCCC(C)C [Isoamyl Acetate], which “Final Activity” value is on record?
**A.** −2

**Q.** With CCCCCCS [1-hexanethiol] as the compound, how does the “Final Activity” value read?
**A.** 3

**Q.** Which “Final Activity” value does the source give for CCCCCCI [1-iodohexane] here?
**A.** 3

**Q.** With CCCCCCCC(=O)O [octanoic acid] as the compound, how does the “Final Activity” value read?
**A.** −21

**Q.** With COC(=O)C(C)=O [methyl pyruvate] as the compound, how does the “Final Activity” value read?
**A.** −100

**Q.** For CC(C)=CCC/C(C)=C/CO [Geraniol], which “Final Activity” value is on record?
**A.** 8

**Q.** For CCOC(C)=O [Ethyl Acetate], which “Final Activity” value is on record?
**A.** 8

**Q.** With CCCCCCC [heptane] as the compound, how does the “Final Activity” value read?
**A.** −29

**Q.** For O=C1CCCCC1 [Cyclohexanone], which “Final Activity” value is on record?
**A.** 48

**Q.** For CC(C)=CCCC(C)CC=O (centres unmarked) [Citronellal], which “Final Activity” value is on record?
**A.** 8

**Q.** For CCCCCCCOC(C)=O [heptyl acetate], which “Final Activity” value is on record?
**A.** −8

**Q.** With CCCCC(=O)C(C)C [2-methyl-3-heptanone] as the compound, how does the “Final Activity” value read?
**A.** −26

**Q.** For CCCCC(=O)OCC [ethyl valerate], which “Final Activity” value is on record?
**A.** 5

**Q.** With CCCCCCCC=O [octanal] as the compound, how does the “Final Activity” value read?
**A.** −20

**Q.** With CCCCCCCCCO [Nonanol] as the compound, how does the “Final Activity” value read?
**A.** −12

**Q.** With O=CCc1ccccc1 [phenylacetaldehyde] as the compound, how does the “Final Activity” value read?
**A.** 3

**Q.** Which “Final Activity” value does the source give for CCC(=O)C(C)=O [2,3-pentanedione] here?
**A.** −55

**Q.** For Cc1ccccc1O [2-methylphenol], which “Final Activity” value is on record?
**A.** 24

**Q.** For COCC(C)=O [methoxyacetone], which “Final Activity” value is on record?
**A.** 6

Same assay, conditions: in vivo; cited from earlier work

**Q.** For CCCCOC(C)=O [butyl acetate], which “Final Activity” value is on record?
**A.** −28

**Q.** With butanol as the compound, how does the “Final Activity” value read?
**A.** −25

**Q.** Which “Final Activity” value does the source give for CCCCCC [hexane] here?
**A.** −25

**Q.** With CC(=O)O [Acetic Acid] as the compound, how does the “Final Activity” value read?
**A.** −7

**Q.** Which “Final Activity” value does the source give for CCO [Ethanol] here?
**A.** −16

**Q.** Which “Final Activity” value does the source give for c1ccncc1 [pyridine] here?
**A.** 99
